Data on three compounds can be found in patent US20170340636A1, “COMPOSITIONS AND METHODS FOR INHIBITION OF AUTOPHAGY” (Board of Regents, The University of Texas System, priority 2016, published 2017).

For experiment [1], the target named is T1, TAOK2 (Rattus norvegicus, UniProt Q9JLS3).
T1 construct: made in house
T1 sequence (Q9JLS3 1-320 limits assumed): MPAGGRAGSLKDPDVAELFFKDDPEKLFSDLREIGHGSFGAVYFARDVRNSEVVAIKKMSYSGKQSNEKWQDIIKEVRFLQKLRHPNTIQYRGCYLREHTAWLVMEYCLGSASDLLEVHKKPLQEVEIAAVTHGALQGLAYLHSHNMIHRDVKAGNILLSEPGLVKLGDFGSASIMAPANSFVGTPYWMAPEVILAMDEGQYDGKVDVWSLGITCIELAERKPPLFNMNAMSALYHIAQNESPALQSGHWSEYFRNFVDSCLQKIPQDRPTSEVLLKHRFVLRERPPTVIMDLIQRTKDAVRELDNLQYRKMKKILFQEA
As to the kind of experiment: Radiometric kinase assay. Type of experiment: biochemical. The settings on record: determined radiometrically; MBP, γ-labeled ATP. The protocol:
Radiometric activity assays of selected compounds against TAOK2 were conducted. A reaction solution of 0.02 mg/ml TAOK2, 50 mM MgCl2, 50 mM HEPES pH 7.5, 1 mg/ml MBP, and increasing compound concentration was made. The compound/DMSO solution was 5% by volume in the final reaction mixture. An ATP solution of 1:20 0.1 μCi/ml 32P -labeled ATP:1 mg/ml ATP was made. 10 μl of ATP solution was added to 50 μl of reaction solution, and allowed to react for 30 minutes. Reactions were stopped by blotting onto filter paper, then submerging in10% trifluoroacetic acid (TFA). Samples were washed 4 times in TFA, then put into scintillation vials. 5 ml Complete Counting Cocktail 3a70B (Research Products International Corp.) was added, and the vials were counted on a Beckman scintillation counter for 10 minutes.
Compounds SW034538 and SW083688 were both selective in the DSF measurements and effective in the GFP-LC3 degradation assays. These compounds were then chosen for radiometric analysis to determine their IC50 values (Table 1). TAOK2 was incubated with inhibitor, MBP, and γ-labeled ATP and allowed to react for 10 minutes. The concentrations of MBP and ATP were chosen such that the reaction was kept in the linear range for the duration of the experiment. […] IC50 value estimates were calculated from the results of the 200 k rescreen described above. […]

The target of experiment [2] is T1, TAOK2. As to the kind of experiment: Kinase-Glo high-throughput screen / re-screen of TAOK2 activity (MBP substrate). It counts as biochemical. As to conditions: estimate from HTS re-screen at 1, 3.3 and 10 μM. The protocol: TAOK2 activity was screened in a high-throughput fashion using Kinase-Glo (Promega). A 20 μL, solution of 50 mM HEPES pH 7.4, 50 mM MgCl2, 1.27 mg/ml MBP and 0.005 mg/ml TAOK2 was added to each well of a 384 well Corning plate using a Biotek MultiFlo dispenser. 0.2 μl of compound (columns 3 to 22, 50 μM), DMSO negative control (columns 2, 23, and 24), or staurosporine positive control (column 1, 43.4 μM) were then added to each well with a Biomek Liquid handler. 10 μl of 50 μg/ml ATP solution was added to each well with a Labsystems Multidrop384. The plates were incubated at RT for 100 minutes. 20 μl Kinase Glo (Promega) was added to each well, and allowed to incubate for 10minutes under agitation. Luminescence was read on an Envision Multilabel plate reader.
After cherry picking primary hits, the selected compounds were assayed in a limited dose-response format (10, 3.3, and 1 μM) in triplicate using the primary enzymatic assay for TAOK2. The data for each assay well was normalized to the neutral controls. The normalized activity values (replicates) for each compound in each assay were then condensed to a single value (condensed activity) using the “Robust Condensing” method in Genedata Screener®. The condensed activity is the most representative single value of the triplicates. In general, the triplicates were pre-condensed into a pair of values as follows:
In order to study the relationship between TAOK2 and both cancer and autophagy, a high-throughput screen was performed using a 200,000 compound library to discover novel small-molecule kinase inhibitors (FIG. 1A-D). Phosphorylation reactions were performed in a 384 well format against the generic kinase substrate Myelin Basic Protein (MBP) with the addition of compound. Kinase-Glo (Promega) was then added to each well to detect remaining ATP concentration. Thus, inhibitory compounds would decrease TAOK2 activity, which would increase both remaining ATP concentration and luminescence in those wells.
After the initial screen, 1645 compounds were identified with inhibition greater than three σ above the mean DMSO control (FIG. 1A). The Z′ factor of the initial screen across all plates was 0.77, indicating high significance (FIG. 1B). These compounds were then re-screened in triplicate under the same conditions, with the compounds being assayed at three concentrations (1 μM, 3.3 μM, and 10 μM, FIG. 1C, D). 432 compounds were identified after the re-screen with average inhibitions greater than 10 sigma at the 10 μM concentration. The Z′ factor of the confirmation screen was 0.52, again indicating high significance.

The compound `CCOCCCn1c(=S)[nH]c2cc(C(=O)NCC3COc4ccccc4O3)ccc2c1=O` (stereo not drawn) [SW083688] had an IC50 against TAOK2 [1] of 1.3 µM.

On to `CS(=O)(=O)c1ccc2nc(NC(=O)CCCOc3ccc(Cl)cc3)sc2c1` [SW172006], for which, on TAOK2 [2], the IC50 is 5 µM. On TAOK2 [1], `CCC(=O)Nc1nc(C)c(-c2csc(Nc3cc(OC)ccc3OC)n2)s1` [SW034538] came in with an IC50 of 0.3 µM.
